Data reported in US20100216825A1, “FUNGICIDAL COMPOSITIONS” (SYNGENTA CROP PROTECTION, INC., priority 2006, published 2010).
Values joined by “and” are separate entries in the source; they are usually repeats but may differ in a detail not shown here. Identical values can stand only once. Like-named read-outs stand apart in the source and are kept apart here.

How the values were obtained:
Type in all cases: cell-based
Pythium ultimum = assay: Action against Pythium ultimum (damping off), growth inhibition in nutrient broth (microtiter plate, photometric); settings: each active ingredient at 0.67 ppm [mg/L] final medium; 24° C., 48 hrs
Pyrenophora teres = assay: Action against Pyrenophora teres (net blotch), growth inhibition in nutrient broth (microtiter plate, photometric); settings: 24° C., 48 hrs
Alternaria solani = assay: Action against Alternaria solani (early blight), growth inhibition in nutrient broth (microtiter plate, photometric); settings: 24° C., 48 hrs
Pyricularia oryzae = settings: 24° C., 72 hrs
Botrytis cinerea = assay: Action against Botrytis cinerea, growth inhibition in nutrient broth (microtiter plate, photometric); settings: 24° C., 48-72 hrs
[1] = each active ingredient at 0.02 ppm [mg/L] final medium

Structure (SMILES): CC(C)C1C2CCC1c1c(NC(=O)c3cn(C)nc3C(F)F)cccc12 (racemic) [Cpd I, 3-difluoromethyl-1-methyl-1H-pyrazole-4-carboxylic acid (9-isopropyl-1,2,3,4-tetrahydro-1,4-methano-naphthalen-5-yl)-amide]
- Observed control in % (% Cobs) observed (Pythium ultimum): 0%
- Observed control in % (% Cobs) observed (Pyrenophora teres; each active ingredient at 0.5 ppm [mg/L] final medium): 70%
- Observed control in % (% Cobs) observed (Pyrenophora teres; each active ingredient at 1 ppm [mg/L] final medium): 79%
- Observed control in % (% Cobs) observed (Alternaria solani; each active ingredient at 0.004 ppm [mg/L] final medium): 1% and 2%
- Observed control in % (% Cobs) observed (Alternaria solani; each active ingredient at 0.008 ppm [mg/L] final medium): 5% and 2%
- Observed control in % (% Cobs) observed (Alternaria solani; each active ingredient at 0.016 ppm [mg/L] final medium): 9% and 12% and 3%
- Observed control in % (% Cobs) observed (Alternaria solani; [1]): 46%
- Observed control in % (% Cobs) observed (Pyricularia oryzae; each active ingredient at 0.01 ppm [mg/L] final medium): 11%
- Observed control in % (% Cobs) observed (Pyricularia oryzae; [1]): 35%
- Observed control in % (% Cobs) observed (Botrytis cinerea; [1]): 17%
- Observed control in % (% Cobs) observed (Botrytis cinerea; each active ingredient at 0.07 ppm [mg/L] final medium): 61%
- Observed control in % (% Cobs) observed (Botrytis cinerea; each active ingredient at 0.22 ppm [mg/L] final medium): 74%
- Observed control in % (% Cobs) observed (Botrytis cinerea; each active ingredient at 0.67 ppm [mg/L] final medium): 79%
